Data as given in article PMC7096397, “Improving the drug-likeness of inspiring natural products - evaluation of the antiparasitic activity against Trypanosoma cruzi through semi-synthetic and simplified analogues of licarin A” (Scientific Reports, 2020).
Like-named read-outs stand apart in the source and are kept apart here.

Experiments:
[1] = system: T. cruzi (Y strain) trypomastigotes; assay: Anti-trypomastigote assay (resazurin viability); format: cell-based, Trypanosoma cruzi; conditions: for IC50: read-out: IC50 trypo
Protocol: (§1) The cells and parasites were kept at 37 °C in a humidified atmosphere containing 5% CO2.
Benznidazole was used as the standard drug. The optical density was determined in FilterMax F5 (Molecular Devices) at 570 nm[38].
(§2) IC50 and CC50 values were calculated using a sigmoid dose-response curves in Graph–Pad Prism 5.0 software (GraphPad Software - San Diego, CA, USA). For the mechanism of action studies one-way ANOVA (Turkey’s Multiple Comparison test) was used for significance (p < 0.05). The assays were repeated at least twice and the samples were tested in duplicate.

[2] = system: T. cruzi intracellular amastigotes; assay: Anti-amastigote assay in infected peritoneal macrophages (infection index); format: cell-based, Trypanosoma cruzi; conditions: 48 h, read-out: IC50 Ama
Protocol: as §1
The cells were plated on a 16-well chamber slide – NUNC (Thermo Fisher Scientific) at 1 × 10^5 cells/well and incubated for 24 h at 37 °C in a 5% CO2 humidified incubator. […] Tested compounds were subsequently incubated with infected macrophages for 48 h at 37 °C (5% CO2 humidified incubator) in different nontoxic concentrations. Benznidazole was used as standard drug. At the end of the assay, slides were fixed with MeOH and stained with Giemsa, counted under a light microscope (EVOS M5000, Thermo, USA) and IC50 values were determined by the infection index.
as §2

[3] = Cytotoxicity against mammalian cells (MTT); format: cell-based, Murine; conditions: mouse, NCTC clone L929 cells
Protocol: Rhesus monkey kidney cells (LLC-MK2-ATCC CCL 7) were used for the maintenance of trypomastigotes of T. cruzi (Y strain) using RPMI-1640 medium supplemented with 2% fetal bovine serum (FBS). The cells and parasites were kept at 37 °C in a humidified atmosphere containing 5% CO2. Peritoneal macrophages, used in the experiments of anti-amastigote assay, were obtained by washing the peritoneal cavity of BALB/c mice, with RPMI-1640 medium supplemented with 10% FBS and kept at 37 °C in a 5% CO2 humidified incubator. Murine conjunctive cells (NCTC clone 929, ATCC) and LLC-MK2 were kept in RPMI-1640 supplemented with 10% FBS at the same conditions described above.
NCTC cells-clone L929 (6 × 10^4 cells/well) were seeded and incubated with tested compounds (200–1.56 µM) for 48 h at 37 °C in a 5% CO2 humidified incubator. Cytotoxic concentration (CC50) was determined by MTT assay. Optical density was determined in FilterMax F5 (Molecular Devices) at 570 nm. Selectivity Index (SI) was determined using the following ratio: CC50 against NCTC cells/IC50 against parasites.
as §2

[4] = PAMPA intestinal model (GIT); format: in vitro ADME
Protocol: Intestinal permeability of tested compounds was estimated applying the PAMPA model previously developed and validated. Briefly, stock solutions were prepared in dimethyl sulfoxide (DMSO) at the concentrations of 10 mM and then diluted with Tris buffer to give the final concentration donor solution at 300 µM and 5% DMSO. The assay procedure was initiated by filling each well of the microtiter plate (MultiScreen, catalogue no. MATRNPS50, Millipore Corporation, Bedford, MA, USA) with 300 μL of each donor drug solution. Carefully, and avoiding the pipette tip contact with the filter, the hydrophobic filter (0.45 μm) of each acceptor well of the 96-well microfilter plate (MultiScreen-IP, catalogue no. MAIPNTR10, Millipore Corporation, Bedford, MA, USA) was adsorbed with 6 μL of the artificial lipid solution which was composed of 2% of L-α-phosphatidylcholine from soybean dissolved, by sonication, in n-dodecane. Immediately after this application, 150 μL of Tris buffer containing 5% DMSO was added to the receiving well. The receiving well was mounted on the donor plate, keeping the underside of the membrane in contact with the donor solution. The assembled donor–acceptor plates were incubated under constant stirring (3 g) at 25 °C for approximately 16 h. Subsequently, the quantity of each compound presented at the receptor solution (150 μL) was determined by UV/VIS spectrophotometrically.

PAMPA-BBB model = format: in vitro ADME
Protocol: The methodology herein applied was similar to that described in the previous section, however with the purpose of assessing the permeability of the compounds through the blood brain barrier (BBB). Thus, stock solutions (10 mM) of each test compound were prepared in DMSO and diluted with phosphate buffered saline (PBS) at pH 7.4. The final concentration of donor solutions was 300 μM and DMSO of 5%. Artificial membrane lipid solutions were prepared daily by dissolving, in n-dodecane, the porcine brain lipid extracted as described[40] at the final concentration of 2% (m/v). PAMPA procedure was similar to that described in the previous section although, in PAMPA-BBB, the donor and acceptor solutions were prepared using phosphate buffer saline (PBS) at pH 7.4 and the Papp was obtained through the equation previously reported.

[5] = Trypanosoma cruzi, T. cruzi trypomastigotes, 24 h incubation, resazurin
[6] = Trypanosoma cruzi, Peritoneal macrophage, in Mus musculus, intracellular amastigotes in BALB/c peritoneal macrophages
[7] = PAMPA intestinal model, 300 µM donor, Tris buffer, 25 °C, 16 h, read-out: Papp GIT
[8] = PAMPA-BBB model, 300 µM donor, PBS pH 7.4, read-out: Papp BBB

Molecule	IC50 [1, 5] [µM]	IC50 [2, 6] [µM]	CC50 at 48 h [3] [µM]	Papp at 16 h, 300 µM [4, 7] [×10⁻⁶ cm/s]	Papp at 16 h, 300 µM (PAMPA-BBB model; [8]) [×10⁻⁶ cm/s]	Papp at 16 h, 300 µM ([4]; PAMPA) [×10⁻⁶ cm/s]	Papp at 16 h, 300 µM (PAMPA-BBB model; PAMPA, pH 7.4) [×10⁻⁶ cm/s]	IC50 ([1]; Trypanosoma cruzi, 24 h) [µM]	IC50 ([2]; Trypanosoma cruzi, Peritoneal macrophage, in Mus musculus) [µM]	fraction unbound at 16 h, 300 µM [4]	anti-T. cruzi activity (in words) ([1]; Table 1 assays)	IC50 ([1]; T. cruzi trypomastigotes, 24 h incubation, resazurin) [µM]	IC50 ([2]; intracellular amastigotes in BALB/c peritoneal macrophages) [µM]
COc1ccc(CO)cc1OC [3a, (3,4-dimethoxyphenyl)methanol]	> 100	> 100	> 200	2.22	2.18	–	–	–	–	–	–	–	–
C/C=C/c1cc(OC)c2c(c1)[C@H](C)[C@@H](c1ccc(O)c(OC)c1)O2 [compound 1, Licarin A]	54.3 ± 8.9	> 100	> 200	–	–	0.85	2.37	–	–	–	–	–	–
C=CCc1cc(CC=C)c(O)c(OC)c1 [5d, 2,4-diallyl-6-methoxy-phenol]	> 100	> 100	> 200	–	–	0.65	0.32	–	–	–	–	–	–
C=CCc1ccc(OC)c(OC)c1 [5a, 4-allyl-1,2-dimethoxy-benzene]	–	–	> 200	2.35	1.56	–	–	> 100	> 100	–	–	–	–
C=CCOc1ccc([C@H]2Oc3c(OC)cc(/C=C/C)cc3[C@@H]2C)cc1OC [1c, (2S,3 S)-2-(4-allyloxy-3-methoxy-phenyl)-7-methoxy-3-methyl-5-[(E)-prop-1-enyl]-2,3-dihydrobenzofuran]	> 100	> 100	> 200	–	–	0.43	0.24	–	–	–	–	–	–
C=CCOc1ccc(CO)cc1OC [3c, (4-allyloxy-3-methoxy-phenyl)methanol]	> 100	> 100	> 200	–	–	1.9	4.74	–	–	–	–	–	–
C/C=C/c1ccc(OC(C)=O)c(OC)c1 [4b, [2-methoxy-4-[(E)-prop-1-enyl]phenyl] acetate]	54.6 ± 10.2	> 100	> 200	–	–	15	1.32	–	–	< 0.1	–	–	–
C/C=C/c1cc(OC)c2c(c1)[C@H](C)[C@@H](c1ccc(OC)c(OC)c1)O2 [1a, (2S,3 S)-2-(3,4-dimethoxyphenyl)-7-methoxy-3-methyl-5-[(E)-prop-1-enyl]-2,3-dihydrobenzo-furan]	28 ± 10.2	> 100	> 200	–	–	0.42	4.26	–	–	–	–	–	–
C=CCc1cc(/C=C/C)cc(OC)c1O [4d, 2-allyl-6-methoxy-4-[(E)-prop-1-enyl]phenol]	21.2 ± 3.7	10.4 ± 0.9	> 200	–	–	1.2	0.74	–	–	–	–	–	–
C=CCOc1ccc(/C=C/C)cc1OC [4c, 1-allyloxy-2-methoxy-4-[(E)-prop-1-enyl]benzene]	> 100	> 100	> 200	–	–	0.13	0.2	–	–	–	did not display activity	–	–
C=CCc1cc(C=O)cc(OC)c1O [2d, 3-allyl-4-hydroxy-5-methoxy-benzaldehyde]	> 100	> 100	> 200	–	–	1.57	1.25	–	–	–	–	–	–
COc1cc(CO)ccc1O [compound 3, vanillyl alcohol]	> 100	> 100	> 200	–	–	0.18	0.64	–	–	–	–	–	–
COc1cc(C=O)ccc1OC(C)=O [2b, (4-formyl-2-methoxy-phenyl) acetate]	> 100	5.6 ± 0.3	> 200	–	–	17.4	4.7	–	–	< 0.1	–	–	–
C=CCOc1ccc(CC=C)cc1OC [5c, 4-allyl-1-allyloxy-2-methoxy-benzene]	> 100	> 100	> 200	–	–	1.21	0.32	–	–	–	–	–	–
O=C(Cn1ccnc1[N+](=O)[O-])NCc1ccccc1 [Bnz, benznidazole, reference compound]	5.5 ± 0.9	18.7 ± 2.6	> 200	–	–	–	–	–	–	–	–	–	–
C=CCc1ccc(OC(C)=O)c(OC)c1 [5b, (4-allyl-2-methoxy-phenyl) acetate]	> 100	> 100	> 200	–	–	2.81	2.28	–	–	–	–	–	–
COc1cc(C=O)ccc1O [compound 2, vanillin]	> 100	5.5 ± 0.6	> 200	1.41	6.15	–	–	–	–	–	–	–	–
C=CCOc1ccc(C=O)cc1OC [2c, 4-allyloxy-3-methoxy-benzaldehyde]	> 100	> 100	> 200	–	–	1.6	5.35	–	–	–	–	–	–
C/C=C/c1cc(OC)c2c(c1)[C@H](C)[C@@H](c1ccc(OC(C)=O)c(OC)c1)O2 [1b, [2-methoxy-4-[(2S,3 S)-7-methoxy-3-methyl-5-[(E)-prop-1-enyl]-2,3-dihydrobenzofuran-2-yl]phenyl] acetate]	17.9 ± 2.9	> 100	67.2 ± 24.6	–	–	1.02	0.34	–	–	–	–	–	–
isoeugenol [compound 4]	–	–	–	–	–	–	–	–	–	–	–	50.7 ± 17.4	> 100
